Test results reported in ChEMBL document CHEMBL4330061, “Antitumoral activity of quinoxaline derivatives: A systematic review” (Eur J Med Chem, 2019).

How the values were obtained:
[1] = test system: MCF7; assay: Antiproliferative activity against human MCF7 cells after 48 hrs by MTT assay; assay type: functional, cell-based; conditions: MCF7, 48 h
[2] = test system: A549; assay: Antiproliferative activity against human A549 cells after 48 hrs by MTT assay; assay type: functional, cell-based; conditions: A549, 48 h

IC50 [1]	IC50 [2]	Structure (SMILES)
1910 nM	3040 nM	COc1ccc(C2C3CCc4ccc(OC)cc4C3=NN2c2nc3nc4ccccc4nc3s2)cc1 (centres undefined)
2320 nM	4280 nM	C#Cc1cccc(Nc2ncnc3cc(OCCOC)c(OCCOC)cc23)c1 [ERLOTINIB]
